Experimental data reported in PubChem BioAssay AID588668 (The Scripps Research Institute Molecular Screening Center, 2011).

Target: Mitogen-activated protein kinase 1 (Homo sapiens) (UniProt P28482)
Assay: phospho-ERK1/2 level reduction in colorectal cells, late-stage follow-up, counter-screen for KLF5 inhibitor project, SW620 cells, chemiluminescent western blot, powder samples (AID 588668)
Conditions: phospho-ERK1/2 western blot, 24 h, at 10 µM

Mitogen-activated protein kinase 1 (Homo sapiens), sequence (P28482 whole entry, looked up): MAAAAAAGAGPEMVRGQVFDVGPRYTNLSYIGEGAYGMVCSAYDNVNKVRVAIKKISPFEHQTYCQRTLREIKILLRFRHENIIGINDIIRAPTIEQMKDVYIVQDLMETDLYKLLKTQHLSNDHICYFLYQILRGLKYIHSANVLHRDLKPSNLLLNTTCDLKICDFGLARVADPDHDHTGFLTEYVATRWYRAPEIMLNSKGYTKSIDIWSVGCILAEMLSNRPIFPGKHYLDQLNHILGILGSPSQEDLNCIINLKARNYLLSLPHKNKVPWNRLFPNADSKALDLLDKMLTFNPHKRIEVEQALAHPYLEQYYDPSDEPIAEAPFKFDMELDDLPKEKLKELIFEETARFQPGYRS

SMILES | phospho-ERK1/2 inhibition (% vs DMSO), stronger effect = higher value [%]
CN(C(=O)CNC(=O)/C=C/c1cccc(Cl)c1)C1CCS(=O)(=O)C1 (stereo not drawn) | 31.3
CN(C(=O)CNC(=O)/C=C/c1cccc(Cl)c1)C1CCS(=O)(=O)CC1 | 48.2
CN(C(=O)COC(=O)/C=C/c1cccc([N+](=O)[O-])c1)C1CCS(=O)(=O)C1 (stereo not drawn) | 35.6
